Legend:
[1] = tested on: clot formation in whole blood; assay: TEG of whole blood, coagulation triggered by tissue factor (Example I); format: cell-based; settings: TF; for clot formation (in words): FVIIa aptamer 0.5, FIXa aptamer 1.0, FXa aptamer 1.0 micromolar
Protocol: TEG is a waveform generated from serial measurements of the torque transmitted from a small oscillating cup to the tip of a metal pin inserted into the cup by a 360 microliter sample of blood or plasma added to the cup.
A 360 microliter blood sample has been added to the cup. For 180 minutes after the sample is added, the cup oscillates alternatively clockwise and counterclockwise through an arc of 4° 45′ at a frequency of one oscillation cycle—i. e., one clockwise rotation and one counterclockwise rotation—every 10 seconds. The lower end of the pin is immersed by the sample; the upper end is suspended from a torsion wire. The TEG analyzer records a single measurement of rotation-induced torque after each clockwise rotation and after each counterclockwise rotation of the cup. “The torque of the rotating cup is transmitted to the immersed pin only after fibrin-platelet bonding has linked the cup and [the] pin together. The strength of these fibrin-platelet bonds affects the magnitude of the pin motion, such that strong clots move the pin directly in phase with the cup motion. Thus, the magnitude of the output is directly related to the strength of the formed clot . . . . [If] the clot retracts or lyses, these bonds are broken and the transfer of cup motion is diminished. The rotation movement of the pin is converted by a mechanical-electrical transducer to an electrical signal which can be monitored by a computer” (TEG 5000 User Manual, pp 3-4, 1999-2007)). The computer converts the series of electrical signals into the TEG tracing.

[2] = tested on: whole blood; assay: Isolated 25-mL oxygenator circuit (Example II); settings: 2 micromolar
Protocol: FIG. 18 is a photograph of the isolated 25-mL oxygenator circuit, the principal components of which are a 5-mL venous reservoir, a custom-designed polypropylene membrane oxygenator, segments of 1.6 mm internal diameter silicone tubing that connect the oxygenator with the reservoir, and a small roller pump. The oxygenator is constructed of two 10 cm×10 cm rectangular Plexiglas® shells that surround and hold a 9.5 cm×9.5 cm×1 mm polypropylene membrane. Its priming volume is 4 mL. The pump circulates the blood continuously from the reservoir through the oxygenator and back to the reservoir.
Unpublished experiments have shown that the thrombogenicity of the isolated 25-mL oxygenator circuit resembles the thrombogenicity of a CPB circuit. […] Clot formation occurred approximately 30 minutes after circulation was started. […] In contrast, UFH 5, U/mL, as well as the combination of RNA9.3t, RNA11F7t, and thrombin aptamer both prevented clot formation in blood circulated for 2 hours in the isolated circuit.

[3] = Cardiopulmonary bypass on a juvenile pig; format: in vivo; settings: 3-hr period of CPB
[4] = target: T1, FIXa (Homo sapiens, UniProt P00740); settings: clinical studies; cited from earlier work
T1 construct: host or cells: circulating blood of trial subjects (endogenous protein)
T1 sequence (P00740 227-461 limits assumed): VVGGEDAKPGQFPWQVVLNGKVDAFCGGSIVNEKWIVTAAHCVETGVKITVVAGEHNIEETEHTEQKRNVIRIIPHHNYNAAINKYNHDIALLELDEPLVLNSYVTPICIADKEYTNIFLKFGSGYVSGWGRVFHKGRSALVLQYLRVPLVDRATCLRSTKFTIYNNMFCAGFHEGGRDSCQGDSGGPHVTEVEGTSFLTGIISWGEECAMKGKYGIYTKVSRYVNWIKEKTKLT
T1 sequence (P00740 47-191 partner limits assumed): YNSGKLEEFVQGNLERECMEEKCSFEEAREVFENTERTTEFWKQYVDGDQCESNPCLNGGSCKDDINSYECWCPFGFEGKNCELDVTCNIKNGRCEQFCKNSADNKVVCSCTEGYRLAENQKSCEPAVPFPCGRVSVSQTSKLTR

[5] = aptamer/antidote pair; neonatal porcine cardiopulmonary bypass; cited from earlier work
[6] = target: human prothrombin (Homo sapiens, UniProt P00734); settings: read-out: apparent Kd; cited from earlier work

Substance | clot formation (in words) [1] | clot formation in isolated oxygenator circuit (in words) [2] | time of clot formation after circulation was started [2] | anticoagulation during CPB (in words) [3] | FIXa activity inhibited in vivo [4] | anticoagulation in CPB model (in words) [5] | MA ([1]; 1.0 micromolar, buffer 69.7 mm) [mm] | R, lag time ([1]; 1.0 micromolar, buffer 4.4 minutes) [min] | α ([1]; 1.0 micromolar, buffer about 55 degrees) [degrees] | Kd [6] [nM]
9.3T: FIXa aptamer, 2'-fluoropyrimidine modified RNA, SEQ ID NO: 1 (AUGGGGACUAUACCGCGUAAUGCUGCCUCCCCAU; 2'-fluoro at CU, RNA at AG, backbone not given here) [Aptamer 9.3T] | none of those aptamers prevented clot formation | failed to prevent clot formation | approximately 30 minutes | failed to effect satisfactory anticoagulation | greater than 99% | sufficiently anticoagulated blood | – | – | – | –
11F7T: FXa aptamer, 2'-fluoropyrimidine modified RNA, SEQ ID NO: 2 (GAGAGCCCCAGCGAGAUAAUACUUGGCCCCGCUCUU; 2'-fluoro at CU, RNA at AG, backbone not given here) [Aptamer 11F7T] | did not prevent the ultimate development of clot | – | – | – | – | – | 59.5 | 17.8 | 24 | –
R9D-14T: prothrombin/thrombin aptamer, 58-base truncation of RNA9D-14, SEQ ID NO: 3 (GGCGGTCGATCACACAGTTCAAACGTAATAAGCCAATGTACGAGGCAGACGACTCGCC; 2'-fluoro at CT, RNA at AG, backbone and T or U not given here) [Aptamer R9D-14T] | – | – | – | – | – | – | – | – | – | 10

— patent publication US9687529B2, “Method of controlling coagulation” (Duke University, priority 2011, dated 2017)
